The values that follow come from ChEMBL document CHEMBL1133599, “Inhibitors of tripeptidyl peptidase II. 2. Generation of the first novel lead inhibitor of cholecystokinin-8-inactivating peptidase: a strategy for the design of peptidase inhibitors” (J Med Chem, 2000).

The target of the experiment is Tripeptidyl-peptidase 2 (Rattus norvegicus, UniProt Q64560). The experiment can be described thus: Inhibition potency against Cholecystokinin-8-Inactivating Peptidase (Serine Peptidase).

SMILES strings stand for the structures. pKi: −log10 of the molar value. Where a SMILES comes first, the peptide text is derived from it. [ ]: non-standard residue; d: D form. The star is where a group is joined. 2Nal = N[C@@H](Cc1ccc2ccccc2c1)C(=O)O; hPhe = N[C@@H](CCc1ccccc1)C(=O)O; Cha = N[C@@H](CC1CCCCC1)C(=O)O; Phg = N[C@H](C(=O)O)c1ccccc1; Nle = CCCC[C@H](N)C(=O)O; Nva = CCC[CH](N)C(=O)O; Cbz = O=C(OCc1ccccc1)*; Bn = c1ccc(C*)cc1; NHBu = CCCCN*

Tripeptidyl-peptidase 2, sequence (Q64560 whole entry): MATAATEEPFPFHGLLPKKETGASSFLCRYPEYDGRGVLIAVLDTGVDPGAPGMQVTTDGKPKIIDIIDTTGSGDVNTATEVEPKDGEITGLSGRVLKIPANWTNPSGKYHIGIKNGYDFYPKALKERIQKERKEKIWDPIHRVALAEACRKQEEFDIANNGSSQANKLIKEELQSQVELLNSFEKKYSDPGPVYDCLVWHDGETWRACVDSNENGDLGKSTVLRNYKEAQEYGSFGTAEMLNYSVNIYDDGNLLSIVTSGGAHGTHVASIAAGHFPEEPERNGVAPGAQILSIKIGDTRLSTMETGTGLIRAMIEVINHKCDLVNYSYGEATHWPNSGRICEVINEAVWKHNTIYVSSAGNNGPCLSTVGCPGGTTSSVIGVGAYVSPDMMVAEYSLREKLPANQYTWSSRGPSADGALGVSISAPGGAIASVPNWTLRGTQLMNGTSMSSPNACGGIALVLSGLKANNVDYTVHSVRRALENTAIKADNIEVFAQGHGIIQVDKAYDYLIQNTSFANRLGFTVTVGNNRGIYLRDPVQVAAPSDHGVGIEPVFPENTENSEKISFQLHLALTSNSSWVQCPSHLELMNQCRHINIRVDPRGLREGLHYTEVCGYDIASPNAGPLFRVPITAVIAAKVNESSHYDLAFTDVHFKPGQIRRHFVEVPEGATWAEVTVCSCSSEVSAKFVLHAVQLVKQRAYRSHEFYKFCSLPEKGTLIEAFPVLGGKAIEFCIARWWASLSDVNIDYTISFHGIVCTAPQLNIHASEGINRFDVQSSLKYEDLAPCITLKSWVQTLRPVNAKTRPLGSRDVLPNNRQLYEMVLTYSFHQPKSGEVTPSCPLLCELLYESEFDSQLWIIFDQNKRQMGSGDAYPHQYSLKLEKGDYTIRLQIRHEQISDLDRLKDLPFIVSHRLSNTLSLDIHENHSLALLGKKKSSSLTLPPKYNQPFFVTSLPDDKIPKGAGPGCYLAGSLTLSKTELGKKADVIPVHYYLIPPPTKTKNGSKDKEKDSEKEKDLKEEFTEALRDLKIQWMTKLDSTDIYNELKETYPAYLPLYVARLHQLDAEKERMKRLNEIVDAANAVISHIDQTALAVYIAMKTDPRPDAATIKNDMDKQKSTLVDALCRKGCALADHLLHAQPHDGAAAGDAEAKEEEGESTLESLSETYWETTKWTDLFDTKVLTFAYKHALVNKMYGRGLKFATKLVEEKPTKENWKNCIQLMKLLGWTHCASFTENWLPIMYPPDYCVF

By pKi is commonly meant the Ki on a negative log10 scale, so that one unit is a factor of ten. The low end stands for a high Ki, the high end for a low Ki. `CNC(=O)[C@H](Cc1ccccc1)NC(=O)[C@@H](N)C(C)C` (H-Val-Phe-NHMe) gave a pKi of 4.66.
In the case of `CCCCNC(=O)[C@H](CCCC)NC(=O)[C@@H](N)C(C)C` (H-Val-[Nle]-NHBu) it was 4.85.
For `CC(C)[C@H](N)C(=O)N[C@@H](Cc1ccc(O)cc1)C(=O)O` (H-Val-Tyr-OH), the pKi was 3.07.
To `CSCC[C@@H](NC(=O)[C@@H](N)C(C)C)C(=O)O` belongs 2.70.
In the case of `C[C@H](N)C(=O)N1CCC[C@H]1C(=O)O` (H-Ala-Pro-OH) it was 2.85.
Compound `C[C@H](N)C(=O)N[C@@H](Cc1ccccc1)C(=O)O` had a negative-log Ki (pKi) of 2.94.
To `CCCCNC(=O)[C@H](Cc1ccccc1)NC(=O)[C@@H](N)C(C)C` (H-Val-Phe-NHBu) belongs 4.70.
Consider `CCCC[C@H](NC(=O)[C@@H](N)CCCC)C(=O)NC`, for which the pKi is 5.05.
`CC(C)[C@H](N)C(=O)N[C@@H](CCc1ccccc1)C(=O)O` (H-Val-[hPhe]-OH) showed a negative-log Ki (pKi) of 3.24.
In the case of `C[C@H](N)C(=O)N[C@@H](C)C(=O)N1CCC[C@H]1C(=O)N[C@@H](C)C(=O)O` (H-AAPA-OH) it was 3.94; in that of `N[C@@H](CC(=O)O)C(=O)N[C@@H](Cc1ccc(O)cc1)C(=O)O` (H-Asp-Tyr-OH), less than 2.30.
With `CC(C)[C@H](NC(=O)CN)C(=O)N[C@@H](Cc1ccccc1)C(=O)O` (H-Gly-Val-Phe-OH), the negative-log Ki (pKi) is 4.54.
`CC(C)C(N)C(=O)NC(Cc1ccc(OCc2ccccc2)cc1)C(=O)O` (stereo not drawn) (H-Val-Tyr(Bn)-OH; configuration not given here) gave a pKi of 3.68.
To `CC(C)[C@H](N)C(=O)NCCCc1ccccc1` belongs 4.07.
In the case of `CSCC[C@H](NC(=O)[C@H](Cc1ccc(O)cc1)NC(=O)[C@@H](N)CC(=O)O)C(=O)O` (H-Asp-Tyr-Met-OH) it was 4.30; in that of `CCC[C@H](NC(=O)[C@@H](NCc1ccccc1)C(C)C)C(=O)O`, less than 2.30.
Regarding `COC(=O)[C@H](Cc1ccccc1)NC(=O)[C@@H](N)C(C)C` (H-Val-Phe-OMe), the pKi was 3.59.
On to `CCCC(NC(=O)C(NC(=O)OCc1ccccc1)C(C)C)C(=O)O` (stereo not drawn) (Cbz-Val-[Nva]-OH; configuration not given here), for which the pKi is less than 2.30.
To `CCCC[C@H](NC)C(=O)N[C@@H](CCCC)C(=O)OC` belongs less than 2.30; to `CCCC[C@H](NC(=O)[C@@H](N)C(C)C)C(=O)O` (H-Val-[Nle]-OH), 3.07.
Take `CC(C)[C@H](N)C(=O)N[C@H](C(=O)O)C(C)C` [VAL-VAL] (H-Val-Val-OH): the pKi was 2.78.
To `CCC[C@H](NC(=O)[C@@H](N)C(C)C)C(=O)O` (H-Val-[Nva]-OH) belongs 3.36; to `C[C@H](N)C(=O)N[C@@H](C)C(=O)N[C@@H](C)C(=O)O`, 4.85; to `CNC(=O)[C@H](Cc1ccc(O)cc1)NC(=O)[C@@H](N)C(C)C` (H-Val-Tyr-NHMe), 4.96.
For `CC(C)[C@H](N)C(=O)NCCCCc1ccccc1`, the pKi was 4.48.
With `CC(C)[C@H](N)C(=O)NCCc1ccccc1`, the pKi was 3.94.
In the case of `C[C@H](N)C(=O)N1CCC[C@H]1C(=O)N[C@@H](C)C(=O)O` (H-Ala-Pro-Ala-OH) it was 5.52; in that of `CC(C)[C@H](N)C(=O)NC(CO)Cc1ccccc1` (stereo partly drawn), 2.68; in that of `NCC(=O)N[C@@H](Cc1c[nH]c2ccccc12)C(=O)O` (H-Gly-Trp-OH), 3.19.
In the case of `CC[C@H](C)[C@H](N)C(=O)N1CCC[C@H]1C(=O)N[C@H](C(=O)O)[C@@H](C)CC` [DIPROTIN A] it was 6.00; in that of `CSCC[C@@H](N)C(=O)N[C@H](CCSC)C(=O)O` (H-[dM]-[dM]-OH), less than 2.30.
To `CCCCOC(=O)C(CCCC)NC(=O)C(NC(=O)OCc1ccccc1)C(C)C` (stereo not drawn) belongs less than 2.52; to `CCCCNC(=O)[C@H](CC1CCCCC1)NC(=O)[C@@H](N)C(C)C` (H-Val-[Cha]-NHBu), 4.24; to `CC(C)[C@H](N)C(=O)NCc1ccccc1`, 4.10.
On to `CC(N)C(=O)NC(C)C(=O)O` (stereo not drawn), for which the pKi was 2.30.
In the case of `CNC(=O)[C@@H](NC(=O)[C@@H](N)C(C)C)C(C)C` (H-Val-Val-NHMe) it was 4.34; in that of `CCCC[C@H](NC(=O)[C@@H](N)CCCC)C(=O)O`, 2.84.
In the case of `CCCC[C@H](NC(=O)[C@@H](N)C(C)C)C(=O)NCCCc1ccccc1` it was 4.54.
In the case of `CC(C)[C@H](N)C(=O)N[C@@H](CC1CCCCC1)C(=O)O` (H-Val-[Cha]-OH) it was 2.52; in that of `CCCCOC(=O)N[C@H](C(=O)N[C@@H](CCCC)C(=O)O)C(C)C`, less than 2.30; in that of `CNC(=O)[C@@H](NC(=O)[C@@H](N)C(C)C)c1ccccc1` (H-Val-[Phg]-NHMe), 4.54.
The compound `CC(C)[C@H](N)C(=O)N[C@H](C(=O)O)c1ccccc1` (H-Val-[Phg]-OH) gave a negative logarithm of the Ki (pKi) of 3.22.
To `CSCC[C@@H](N)C(=O)N[C@@H](Cc1ccc(O)cc1)C(=O)O` belongs 2.70; to `CC(C)C(NC(=O)C(NC(=O)OCc1ccccc1)C(C)C)C(=O)O` (stereo not drawn) (Cbz-Val-Val-OH; configuration not given here), less than 2.30.
In the case of `CCC[C@H](NC(=O)[C@@H](NC(C)=O)C(C)C)C(=O)O` (Ac-Val-[Nva]-OH) it was less than 3.30; in that of `NCC(=O)N[C@@H](Cc1ccccc1)C(=O)O` (H-Gly-Phe-OH), 3.33; in that of `CCCC[C@H](NC(=O)[C@@H](N)C(C)C)C(=O)NC` (H-Val-[Nle]-NHMe), 4.18.
In turn, `CCCCOC(=O)[C@H](CCCC)NC(=O)[C@@H](N)C(C)C` gave a pKi of 3.54.
To `CC(C)[C@H](N)C(=O)N[C@@H](Cc1ccc2ccccc2c1)C(=O)O` (H-Val-[2Nal]-OH) belongs 4.22; to `CCCCOC(=O)[C@H](Cc1ccccc1)NC(=O)[C@@H](N)C(C)C`, 3.64; to `NCC(=O)NCC(=O)N[C@@H](Cc1ccccc1)C(=O)O` (H-Gly-Gly-Phe-OH), 3.96.
To `CCCC[C@H](NC)C(=O)N[C@@H](CCCC)C(=O)NC` belongs less than 2.52; to `CSCC[C@H](NC(=O)[C@H](Cc1c[nH]c2ccccc12)NC(=O)CN)C(=O)O` (H-Gly-Trp-Met-OH), 4.70; to `CCCC[C@H](NCc1ccccc1)C(=O)N[C@@H](CCCC)C(=O)NC`, less than 2.52.
To `CCCCNC(=O)[C@H](CCC)NC(=O)[C@@H](N)C(C)C` (H-Val-[Nva]-NHBu) belongs 5.52; to `CC(C)[C@H](N)C(=O)N[C@@H](C)C(=O)O` (H-Val-Ala-OH), 2.05.
On to `CCC[C@H](NC(=O)[C@@H](N)CCC)C(=O)O` (H-[Nva]-[Nva]-OH), for which the negative-log Ki (pKi) is 3.00.
To `CCC[C@H](NC(=O)[C@@H](N)C(C)C)C(=O)NC` (H-Val-[Nva]-NHMe) belongs 4.55.
